{"source": "paper PMC10609854", "about": "(Pharmaceuticals, 2023)", "key": {"[1]": {"tested_on": "formalin-induced pain", "assay": "formalin test", "assay_type": "in vivo, mice", "conditions": "mice; for duration of the nociceptive response, acute phase of the formalin test: i.p. 30 min before test, 0–5 min after formalin; for influence on the analgesic effect of E153, late phase of the formalin test: 15 mg/kg given 10 min before E153 (15 mg/kg i.p.); for duration of the nociceptive response, late phase of the formalin test: single administration alone, 15 mg/kg", "description": "The mice received an intraperitoneal (i.p.) injection of either the test compound or a control solution. After 30 min, a 20 μL injection of a 2.5% formalin solution was administered into the right hind paw. Right after the formalin injection, the animals were individually placed into glass containers and observed for the following 30 min. During specific time intervals (0–5 min, referred to as Phase I, and 15–30 min, referred to as Phase II, post-formalin injection), the time spent by the animals licking or biting the injected paw was recorded.."}, "[2]": {"tested_on": "histamine-induced pruritus", "assay": "histamine-induced pruritus", "assay_type": "in vivo", "conditions": "mice; for influence on the antipruritic activity of E153, histamine-induced pruritus: 15 mg/kg given 10 min before E153 (5 mg/kg i.p.)", "description": "(§1) The area (around 2 cm^2) of the nape of mice was shaved at least 2 days prior to experiments. On the day of the experiment, each mouse was individually placed in plastic chambers (15 × 15 × 30 cm). After the 30 min period of habituation, the mice received an intradermal (i.d.) injection of histamine dihydrochloride (10 µmol/site), chloroquine (CQ, 200 µg/site), or SLIGRL-NH2 (40 nmol/site), which were dissolved in physiological saline and administrated at the constant volume of 20 μL. Immediately following the injection, scratching (series of movements considered as a single scratching bout usually consisted of three single scratches) of the injected site by the hind paw was counted for 60 min, 30 min, or 45 min after histamine, CQ, and SLIGRL-NH2 injection, respectively."}, "[3]": {"tested_on": "CQ-induced pruritus", "assay": "chloroquine (CQ)-induced pruritus", "assay_type": "in vivo, mice", "conditions": "mice, 10 mg/kg i.p.; 30 min observation", "description": "as §1"}, "[4]": {"tested_on": "SLIGRL-induced pruritus", "assay": "SLIGRL-induced pruritus", "assay_type": "in vivo", "conditions": "mice, 10 mg/kg i.p.; 45 min observation", "description": "as §1"}}, "note": "Counter-ions that a name gives are not always drawn."}
{"molecule": "Cc1cc(OCCN2CCOCC2)nn1-c1ccc2ccccc2c1.Cl", "note": "[Compound S1RA, 4-[2-[[5-methyl-1-(2-naphthalenyl)1H-pyraol-3-yl]oxy]ethyl]-morpholine hydro-chloride]", "values": [{"measurement": "activity in the late phase of the formalin test", "setting": "[1]; 15 mg/kg i.p.", "result": "inactive"}, {"measurement": "paw licking and biting behavior, late phase of the formalin test", "setting": "[1]; 30 mg/kg i.p.", "result": "showed activity"}, {"measurement": "nociceptive response, late phase of the formalin test, joint administration", "setting": "[1]; JNJ 5207852 10 mg/kg + S1RA 30 mg/kg i.p.", "result": "did not affect the activity of the compounds"}, {"measurement": "duration of the nociceptive response, acute phase of the formalin test", "setting": "[1]", "result": "lack of activity"}]}
{"molecule": "c1cc(OCCCN2CCCCC2)ccc1CN1CCCCC1", "note": "[JNJ 5207852, 1-[3-[4-(1-piperidinylmethyl)phenoxy]propyl]piperidine hydrochloride]", "values": [{"measurement": "activity in the late phase of the formalin test", "setting": "[1]; 10 mg/kg i.p.", "result": "inactive"}, {"measurement": "paw licking and biting behavior, late phase of the formalin test", "setting": "[1]; 15 and 30 mg/kg i.p.", "result": "significantly attenuated"}, {"measurement": "nociceptive response, late phase of the formalin test, joint administration", "setting": "[1]; JNJ 5207852 15 mg/kg + S1RA 15 mg/kg i.p., compared to saline", "result": "significantly stronger decrease in nociceptive response"}, {"measurement": "duration of the nociceptive response, acute phase of the formalin test", "setting": "[1]", "result": "lack of activity"}]}
{"molecule": "Cl.O=C(OCCN1CCOCC1)C1(c2ccccc2)CCCCC1", "note": "[PRE-084, 2-[4-morpholinethyl]1-phenylcyclohexanecarboxylate hydrochloride]", "values": [{"measurement": "influence on the analgesic effect of E153, late phase of the formalin test", "setting": "[1]", "result": "antagonized the effects of test compound"}, {"measurement": "duration of the nociceptive response, late phase of the formalin test", "setting": "[1]", "result": "did not change"}, {"measurement": "influence on the antipruritic activity of E153, histamine-induced pruritus", "setting": "[2]", "result": "significant decrease in E153 activity"}, {"measurement": "scratching behavior, histamine-induced pruritus", "setting": "[2]; administered alone, 15 mg/kg", "result": "did not alter animal scratching behavior"}]}
{"molecule": "C[C@@H](N)Cc1c[nH]cn1", "note": "[RAMH, (R)-(-)-α-methylhistamine]", "values": [{"measurement": "influence on the analgesic effect of E153, late phase of the formalin test", "setting": "[1]", "result": "antagonized the effects of test compound"}, {"measurement": "duration of the nociceptive response, late phase of the formalin test", "setting": "[1]", "result": "did not change"}, {"measurement": "influence on the antipruritic activity of E153, histamine-induced pruritus", "setting": "[2]", "result": "had no effect"}, {"measurement": "scratching behavior, histamine-induced pruritus", "setting": "[2]; administered alone, 15 mg/kg", "result": "did not alter animal scratching behavior"}]}
{"molecule": "COc1ccc(CN(CCN(C)C)c2ccccn2)cc1", "note": "[pyrilamine, reference compound]", "values": [{"measurement": "scratching behavior, histamine-induced pruritus", "setting": "[2]; i.p. 30 min before i.d. histamine", "result": "significantly reduced scratching behavior"}, {"measurement": "number of scratch bouts, CQ-induced pruritus", "setting": "[3]", "result": "not effective"}, {"measurement": "scratch bouts, SLIGRL-induced pruritus", "setting": "[4]", "result": "not effective"}]}
